Laboratory results taken from PMC12090182, “Repurposing of the RIPK1-Selective Benzo[1,4]oxazepin-4-one Scaffold for the Development of a Type III LIMK1/2 Inhibitor” (ACS Chemical Biology, 2025).
Like-named read-outs stand apart in the source and are kept apart here.

What was measured:
Assay in all cases: biochemical
Type in all cases: binding
[1] = molecular target: 468 kinases including some pathogenic mutants (Homo sapiens, UniProt Q13470); settings: TNK1 (Entrez TNK1), 100 nM; read-out: Percent Control
[2] = molecular target: 468 kinases including some pathogenic mutants (Homo sapiens, UniProt Q9UQ88); settings: CDC2L2 (Entrez CDC2L2), 100 nM; read-out: Percent Control
[3] = molecular target: 468 kinases including some pathogenic mutants (Homo sapiens, UniProt O60674); settings: JAK2(JH1domain-catalytic) (Entrez JAK2), 1000 nM; read-out: Percent Control
[4] = molecular target: 468 kinases including some pathogenic mutants (Homo sapiens, UniProt Q12866); settings: MERTK (Entrez MERTK), 100 nM; read-out: Percent Control
Chain of 468 kinases including some pathogenic mutants (Homo sapiens, UniProt Q12866) (Q12866 21-999, change not shown): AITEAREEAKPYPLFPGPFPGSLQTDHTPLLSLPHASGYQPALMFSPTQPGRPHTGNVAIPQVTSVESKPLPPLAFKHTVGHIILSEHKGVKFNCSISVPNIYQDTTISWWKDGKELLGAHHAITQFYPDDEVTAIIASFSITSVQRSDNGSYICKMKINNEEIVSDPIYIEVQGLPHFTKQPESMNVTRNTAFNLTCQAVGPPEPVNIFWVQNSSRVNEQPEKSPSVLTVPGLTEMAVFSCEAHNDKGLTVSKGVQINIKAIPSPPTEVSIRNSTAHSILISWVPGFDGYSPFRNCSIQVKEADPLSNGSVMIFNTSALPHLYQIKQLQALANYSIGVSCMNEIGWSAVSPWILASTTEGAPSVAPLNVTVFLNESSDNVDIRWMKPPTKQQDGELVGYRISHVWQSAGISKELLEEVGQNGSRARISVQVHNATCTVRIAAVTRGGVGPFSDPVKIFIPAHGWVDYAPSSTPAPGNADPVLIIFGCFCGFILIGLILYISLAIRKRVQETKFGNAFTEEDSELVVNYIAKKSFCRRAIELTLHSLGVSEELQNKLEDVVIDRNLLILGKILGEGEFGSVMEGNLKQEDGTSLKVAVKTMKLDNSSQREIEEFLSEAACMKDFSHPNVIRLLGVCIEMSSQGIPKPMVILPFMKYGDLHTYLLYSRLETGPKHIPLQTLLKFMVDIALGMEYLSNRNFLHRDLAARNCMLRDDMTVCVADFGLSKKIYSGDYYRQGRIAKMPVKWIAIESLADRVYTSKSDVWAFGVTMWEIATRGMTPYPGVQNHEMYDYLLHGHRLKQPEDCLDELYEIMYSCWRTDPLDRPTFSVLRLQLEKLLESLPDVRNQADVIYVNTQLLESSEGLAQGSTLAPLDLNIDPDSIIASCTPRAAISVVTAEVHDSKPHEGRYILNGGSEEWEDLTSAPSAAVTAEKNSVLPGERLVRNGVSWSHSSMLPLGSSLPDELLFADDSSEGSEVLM

[5] = molecular target: 468 kinases including some pathogenic mutants (Homo sapiens, UniProt Q9P0L2); settings: MARK1 (Entrez MARK1), 1000 nM; read-out: Percent Control
[6] = molecular target: 468 kinases including some pathogenic mutants (Homo sapiens, UniProt Q9H2X6); settings: HIPK2 (Entrez HIPK2), 100 nM; read-out: Percent Control
[7] = molecular target: 468 kinases including some pathogenic mutants (Homo sapiens, UniProt Q9UBF8); settings: PIK4CB (Entrez PI4KB), 100 nM; read-out: Percent Control
Chain of 468 kinases including some pathogenic mutants (Homo sapiens, UniProt Q9UBF8) (Q9UBF8 whole entry, change not shown): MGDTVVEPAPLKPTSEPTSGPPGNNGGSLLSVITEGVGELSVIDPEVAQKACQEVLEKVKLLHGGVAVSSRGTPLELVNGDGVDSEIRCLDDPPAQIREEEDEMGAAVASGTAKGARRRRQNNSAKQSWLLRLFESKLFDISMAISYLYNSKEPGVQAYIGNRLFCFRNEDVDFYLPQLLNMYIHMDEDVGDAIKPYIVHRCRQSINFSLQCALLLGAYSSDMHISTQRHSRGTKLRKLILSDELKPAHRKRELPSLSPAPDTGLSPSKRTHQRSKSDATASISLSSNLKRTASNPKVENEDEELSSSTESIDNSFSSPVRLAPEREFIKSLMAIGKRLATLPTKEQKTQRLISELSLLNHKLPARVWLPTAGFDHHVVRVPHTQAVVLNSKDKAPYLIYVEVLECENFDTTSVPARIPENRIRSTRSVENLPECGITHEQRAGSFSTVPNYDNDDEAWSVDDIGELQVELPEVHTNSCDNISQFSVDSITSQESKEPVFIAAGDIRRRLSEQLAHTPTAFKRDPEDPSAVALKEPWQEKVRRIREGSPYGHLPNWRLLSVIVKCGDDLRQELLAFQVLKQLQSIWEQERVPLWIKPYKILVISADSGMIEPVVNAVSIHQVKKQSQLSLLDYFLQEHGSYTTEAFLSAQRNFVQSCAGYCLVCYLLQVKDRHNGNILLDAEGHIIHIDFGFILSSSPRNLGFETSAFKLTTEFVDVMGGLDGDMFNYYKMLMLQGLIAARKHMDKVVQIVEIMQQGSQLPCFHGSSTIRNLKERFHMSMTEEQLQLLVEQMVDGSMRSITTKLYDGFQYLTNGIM

[8] = molecular target: 468 kinases including some pathogenic mutants (Homo sapiens, UniProt O75716); settings: STK16 (Entrez STK16), 1000 nM; read-out: Percent Control
Chain of 468 kinases including some pathogenic mutants (Homo sapiens, UniProt O75716) (O75716 whole entry, change not shown): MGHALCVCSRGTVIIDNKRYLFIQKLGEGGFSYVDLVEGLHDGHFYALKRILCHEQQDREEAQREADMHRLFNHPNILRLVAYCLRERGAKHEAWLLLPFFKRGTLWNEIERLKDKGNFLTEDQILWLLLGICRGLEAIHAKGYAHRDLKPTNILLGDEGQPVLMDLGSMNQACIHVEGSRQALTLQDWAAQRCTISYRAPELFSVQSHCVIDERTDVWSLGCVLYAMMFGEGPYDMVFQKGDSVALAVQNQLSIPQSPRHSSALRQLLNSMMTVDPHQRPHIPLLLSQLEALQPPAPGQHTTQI

[9] = molecular target: 468 kinases including some pathogenic mutants (Homo sapiens, UniProt Q04912); settings: MST1R (Entrez MST1R), 100 nM; read-out: Percent Control
[10] = molecular target: 468 kinases including some pathogenic mutants (Homo sapiens, UniProt P45984); settings: JNK2 (Entrez MAPK9), 100 nM; read-out: Percent Control
[11] = molecular target: 468 kinases including some pathogenic mutants (Homo sapiens, UniProt O95819); settings: MAP4K4 (Entrez MAP4K4), 100 nM; read-out: Percent Control
Chain of 468 kinases including some pathogenic mutants (Homo sapiens, UniProt O95819) (O95819 whole entry, change not shown): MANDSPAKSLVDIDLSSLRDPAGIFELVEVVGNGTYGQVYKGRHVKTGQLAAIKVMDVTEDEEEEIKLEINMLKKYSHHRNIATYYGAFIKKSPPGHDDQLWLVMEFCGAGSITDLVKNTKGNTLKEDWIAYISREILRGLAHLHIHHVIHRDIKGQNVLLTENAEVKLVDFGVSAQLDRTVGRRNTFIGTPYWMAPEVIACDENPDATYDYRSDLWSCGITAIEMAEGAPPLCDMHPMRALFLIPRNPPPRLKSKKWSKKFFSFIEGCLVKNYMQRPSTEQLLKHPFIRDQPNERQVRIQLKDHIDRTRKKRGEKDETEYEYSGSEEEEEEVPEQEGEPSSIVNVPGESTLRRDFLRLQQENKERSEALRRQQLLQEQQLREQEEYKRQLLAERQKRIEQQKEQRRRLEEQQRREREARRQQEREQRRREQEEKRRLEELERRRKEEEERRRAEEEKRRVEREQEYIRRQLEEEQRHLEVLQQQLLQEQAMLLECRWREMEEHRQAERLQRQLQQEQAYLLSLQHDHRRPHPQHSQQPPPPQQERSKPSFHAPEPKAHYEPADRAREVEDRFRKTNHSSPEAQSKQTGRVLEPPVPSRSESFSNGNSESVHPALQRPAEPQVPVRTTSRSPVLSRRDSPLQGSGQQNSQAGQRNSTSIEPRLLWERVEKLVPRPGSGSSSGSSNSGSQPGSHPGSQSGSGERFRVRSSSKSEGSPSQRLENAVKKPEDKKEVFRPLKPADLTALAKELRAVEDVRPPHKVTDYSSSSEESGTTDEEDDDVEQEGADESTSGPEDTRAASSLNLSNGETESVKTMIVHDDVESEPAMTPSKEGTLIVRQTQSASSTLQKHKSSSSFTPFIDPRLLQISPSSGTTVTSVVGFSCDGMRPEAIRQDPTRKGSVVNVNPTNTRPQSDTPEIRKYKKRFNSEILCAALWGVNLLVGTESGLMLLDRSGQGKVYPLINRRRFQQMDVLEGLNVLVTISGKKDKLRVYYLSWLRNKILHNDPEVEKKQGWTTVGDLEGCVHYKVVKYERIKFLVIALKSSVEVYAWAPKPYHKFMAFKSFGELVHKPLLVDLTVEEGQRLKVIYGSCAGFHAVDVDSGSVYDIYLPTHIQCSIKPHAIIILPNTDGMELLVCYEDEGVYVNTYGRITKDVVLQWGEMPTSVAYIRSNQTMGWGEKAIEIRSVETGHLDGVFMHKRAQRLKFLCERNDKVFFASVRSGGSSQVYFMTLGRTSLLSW

[12] = molecular target: 468 kinases including some pathogenic mutants (Homo sapiens, UniProt Q8NEV4); settings: MYO3A (Entrez MYO3A), 100 nM; read-out: Percent Control
[13] = molecular target: 468 kinases including some pathogenic mutants (Homo sapiens, UniProt P07949, V804M); settings: read-out: Percent Control
[14] = molecular target: 468 kinases including some pathogenic mutants (Homo sapiens, UniProt O43318); settings: TAK1 (Entrez MAP3K7), 100 nM; read-out: Percent Control
Chain of 468 kinases including some pathogenic mutants (Homo sapiens, UniProt O43318) (O43318 whole entry, change not shown): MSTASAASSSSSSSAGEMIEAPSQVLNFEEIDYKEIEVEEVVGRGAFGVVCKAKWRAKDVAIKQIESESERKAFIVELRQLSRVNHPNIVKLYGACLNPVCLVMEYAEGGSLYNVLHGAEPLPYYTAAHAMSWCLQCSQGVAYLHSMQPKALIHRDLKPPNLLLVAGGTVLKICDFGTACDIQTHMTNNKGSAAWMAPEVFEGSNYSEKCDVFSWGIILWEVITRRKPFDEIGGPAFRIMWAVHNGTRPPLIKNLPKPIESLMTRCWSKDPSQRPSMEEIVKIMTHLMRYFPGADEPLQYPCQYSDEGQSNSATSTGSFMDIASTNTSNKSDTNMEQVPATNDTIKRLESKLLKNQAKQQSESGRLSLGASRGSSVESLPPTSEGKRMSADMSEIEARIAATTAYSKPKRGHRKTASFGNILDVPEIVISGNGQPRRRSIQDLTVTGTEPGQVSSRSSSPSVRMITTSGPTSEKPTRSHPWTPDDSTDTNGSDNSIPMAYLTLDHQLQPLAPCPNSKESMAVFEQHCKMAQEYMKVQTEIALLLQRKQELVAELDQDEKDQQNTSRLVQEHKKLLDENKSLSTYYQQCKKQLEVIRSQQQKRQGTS

[15] = molecular target: 468 kinases including some pathogenic mutants (Homo sapiens, UniProt Q8WXR4); settings: MYO3B (Entrez MYO3B), 100 nM; read-out: Percent Control
[16] = molecular target: 468 kinases including some pathogenic mutants (Homo sapiens, UniProt P07949, V804L); settings: read-out: Percent Control
[17] = molecular target: 468 kinases including some pathogenic mutants (Homo sapiens, UniProt P11802); settings: 100 nM, read-out: Percent Control
Chain of 468 kinases including some pathogenic mutants (Homo sapiens, UniProt P11802) (P11802 whole entry, change not shown): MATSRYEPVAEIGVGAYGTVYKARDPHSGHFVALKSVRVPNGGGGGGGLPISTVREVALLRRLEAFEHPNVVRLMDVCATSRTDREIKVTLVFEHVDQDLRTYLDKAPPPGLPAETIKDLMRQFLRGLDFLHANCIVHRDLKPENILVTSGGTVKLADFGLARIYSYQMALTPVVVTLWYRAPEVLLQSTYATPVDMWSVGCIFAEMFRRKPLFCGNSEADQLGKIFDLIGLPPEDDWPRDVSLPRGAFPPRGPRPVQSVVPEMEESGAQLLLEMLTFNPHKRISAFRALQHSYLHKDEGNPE

[18] = molecular target: 468 kinases including some pathogenic mutants (Homo sapiens, UniProt Q6XUX3); settings: RIPK5 (Entrez DSTYK), 1000 nM; read-out: Percent Control
[19] = molecular target: 468 kinases including some pathogenic mutants (Homo sapiens, UniProt O75116); settings: ROCK2 (Entrez ROCK2), 100 nM; read-out: Percent Control
[20] = molecular target: 468 kinases including some pathogenic mutants (Homo sapiens, UniProt P22455); settings: FGFR4 (Entrez FGFR4), 100 nM; read-out: Percent Control
[21] = molecular target: 468 kinases including some pathogenic mutants (Homo sapiens, UniProt P10721, L576P); settings: read-out: Percent Control
[22] = molecular target: 468 kinases including some pathogenic mutants (Homo sapiens, UniProt Q52WX2); settings: SBK1 (Entrez SBK1), 1000 nM; read-out: Percent Control
Chain of 468 kinases including some pathogenic mutants (Homo sapiens, UniProt Q52WX2) (Q52WX2 whole entry, change not shown): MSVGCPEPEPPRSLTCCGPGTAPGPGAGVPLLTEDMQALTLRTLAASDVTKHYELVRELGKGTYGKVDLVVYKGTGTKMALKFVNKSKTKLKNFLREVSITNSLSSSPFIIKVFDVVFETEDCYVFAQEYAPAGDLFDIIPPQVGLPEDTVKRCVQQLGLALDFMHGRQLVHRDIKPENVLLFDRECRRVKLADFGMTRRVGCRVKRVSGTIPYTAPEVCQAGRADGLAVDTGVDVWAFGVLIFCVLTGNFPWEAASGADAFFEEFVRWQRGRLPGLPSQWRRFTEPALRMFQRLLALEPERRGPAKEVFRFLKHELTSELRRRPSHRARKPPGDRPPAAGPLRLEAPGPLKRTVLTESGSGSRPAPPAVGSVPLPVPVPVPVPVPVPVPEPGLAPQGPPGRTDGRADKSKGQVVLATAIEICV

[23] = molecular target: 468 kinases including some pathogenic mutants (Homo sapiens, UniProt Q99759); settings: MAP3K3 (Entrez MAP3K3), 100 nM; read-out: Percent Control
[24] = molecular target: 468 kinases including some pathogenic mutants (Homo sapiens, UniProt Q8WU08); settings: YANK1 (Entrez STK32A), 100 nM; read-out: Percent Control
[25] = molecular target: 468 kinases including some pathogenic mutants (Homo sapiens, UniProt O14730); settings: RIOK3 (Entrez RIOK3), 100 nM; read-out: Percent Control
[26] = molecular target: 468 kinases including some pathogenic mutants (Homo sapiens, UniProt Q6ZWH5); settings: NEK10 (Entrez NEK10), 100 nM; read-out: Percent Control
[27] = molecular target: 468 kinases including some pathogenic mutants (Homo sapiens, UniProt P42345); settings: MTOR (Entrez MTOR), 1000 nM; read-out: Percent Control
[28] = molecular target: 468 kinases including some pathogenic mutants (Homo sapiens, UniProt Q9NSY1); settings: BIKE (Entrez BMP2K), 100 nM; read-out: Percent Control

Structure (SMILES): CN1C(=O)[C@@H](N2CCc3c(nn(Cc4ccccc4)c3C(N)=O)C2=O)COc2cc(Cl)ccc21 [Compound 10, (S)-2-benzyl-6-(8-chloro-5-methyl-4-oxo-2,3,4,5-tetrahydrobenzo[b][1,4]oxazepin-3-yl)-7-oxo-4,5,6,7-tetrahydro-2H-pyrazolo[3,4-c]pyridine-3-carboxamide]
- remaining activity at 0.1 µM [1]: 78%
- remaining activity at 0.1 µM [2]: 100%
- remaining activity at 1 µM [3]: 100%
- remaining activity at 0.1 µM [4]: 72%
- remaining activity at 1 µM [5]: 100%
- remaining activity at 0.1 µM [6]: 78%
- remaining activity at 0.1 µM [7]: 94%
- remaining activity at 1 µM [8]: 100%
- remaining activity at 0.1 µM [9]: 82%
- remaining activity at 0.1 µM [10]: 80%
- remaining activity at 0.1 µM [11]: 99%
- remaining activity at 0.1 µM [12]: 83%
- remaining activity at 0.1 µM [13]: 87%
- remaining activity at 0.1 µM [14]: 100%
- remaining activity at 0.1 µM [15]: 97%
- remaining activity at 1 µM [16]: 100%
- remaining activity at 0.1 µM ([17]; CDK4 (Entrez CDK4)): 94%
- remaining activity at 0.1 µM ([17]; CDK4-cyclinD1 (Entrez CDK4)): 77%
- remaining activity at 0.1 µM ([17]; CDK4-cyclinD3 (Entrez CDK4)): 92%
- remaining activity at 1 µM [18]: 100%
- remaining activity at 0.1 µM [19]: 75%
- remaining activity at 0.1 µM [20]: 81%
- remaining activity at 0.1 µM [21]: 72%
- remaining activity at 1 µM [22]: 100%
- remaining activity at 0.1 µM [23]: 66%
- remaining activity at 0.1 µM [24]: 89%
- remaining activity at 0.1 µM [25]: 63%
- remaining activity at 0.1 µM [26]: 89%
- remaining activity at 1 µM [27]: 100%
- remaining activity at 0.1 µM [28]: 67%
